The record followed here is US11708366B2, “Heteroaryl substituted spiropiperidinyl derivatives and pharmaceutical uses thereof” (Novartis AG, priority 2020, dated 2023).

The assay concerns the target LTC4S (Homo sapiens (Human), UniProt Q16873). Briefly: Human whole blood HTRF assay (LTC4 release after calcium ionophore A23187). Type of assay: cell-based. Conditions: human whole blood diluted 1:3, 4 h incubation, calcium ionophore A23187 stimulation, LTC4 by HTRF; read-out: human whole blood HTRF IC50. The protocol: B. Human Whole Blood HTRF Assay
LTC4 synthase catalyzes the conversion of Leukotriene A4 (LTA4) to Leukotriene C4 (LTC4) in the presence of reduced glutathione (GSH) as a co-substrate. For testing the inhibition of LTC4S, compounds are prepared for either eight-point or sixteen-point dose response studies in 384-well Labcyte low dead volume (LDV) plates. For eight-point dose response studies, compounds are diluted 1:5 starting at 1 μM concentration in 90% DMSO. […] Compounds are studied in duplicates. Ten wells are filled with 90% DMSO which correspond to the stimulated and unstimulated control wells. […] The morning of the assay, whole blood is collected from three human donors. Donors must be non-smokers and must not have taken NSAIDs within the 48 hours prior to blood collection. The amount of blood collected per donor depends on the amount of compounds to be tested and the dose response format in which they are to be studied (about 8 mL of whole blood for either 22 compounds in 8-point dose response format or 11 compounds in 16-point dose response format). […] 50 μL of diluted blood are then dispensed into each assay plate well with pre-dispensed compounds and DMSO for the stimulated and unstimulated controls using a Thermo Scientific™ Multidrop™ Combi reagent dispenser, and incubated at 37° C. for 4 hours. Calcium ionophore A23187 is used to induce a rapid increase in intracellular levels of Ca^2+. The Ca^2+ functions as a universal second messenger in various immune cells, such as T cells, B cells and mast cells, and is used to induce degranulation and release of eicosanoids, including LTC4, by cells contained in the whole blood samples. […] All but the unstimulated control wells are subsequently stimulated by dispensing 1 μL of the 0.5 mg/mL calcium ionophore suspension using the Thermo Scientific™ Multidrop™ Combi reagent dispenser. Plates are incubated for 15 minutes at 37° C. Plates are then centrifuged at 300 g for 10 minutes at room temperature to pellet blood cells and stop the reaction. […] Plates are sealed and stored at −80° C.
In order to measure the amount of LTC4 released by cells in the human blood samples during calcium ionophore stimulation, supernatants are analyzed using the Cisbio LTC4 homogeneous time-resolved FRET (HTRF) kit (Cisbio #64LC4PEH). […] Ten serially diluted standard curve solutions are also dispensed in duplicate into each plate as instructed in the protocol. Blank controls and cryptate control wells are also prepared. Then, 5 μL of anti-LTC4-d2 working solution are dispensed into all the wells, but the cryptate control wells. Subsequently, 5 μL of anti-LTC4-Eu3+ cryptate working solution are dispensed into all the wells. Plates are then covered with a lid and incubated at room temperature for one hour with gentle orbital shaking (˜450 rpm). […] HTRF ratios are calculated for each well by dividing the 665 nm intensity by the 620 nm intensity, and multiplying the resulting ratio by 10,000. LTC4 standard curves are interpolated for each plate and used to convert the HTRF ratio readouts into the amount of LTC4 present in each well (in ng/mL). Parametric curve fitting is used to obtain inhibition curves and IC50 values.
As to `Cc1nc(N2CCC3(CCCC(=O)N3c3ccc(F)c(F)c3)CC2)cc(-n2cccn2)n1` [Example 48, 1-(3,4-difluorophenyl)-9-(2-methyl-6-(1H-pyrazol-1-yl)pyrimidin-4-yl)-1,9-diazaspiro[5.5]undecan-2-one], the half-maximal inhibitory concentration (IC50) was found to be 45 nM.
The value for `O=C1CCCC2(CCN(c3cc(N4CCCOCC4)ncn3)CC2)N1c1ccc(F)c(F)c1` [Example 45, 9-(6-(1,4-oxazepan-4-yl)pyrimidin-4-yl)-1-(3,4-difluorophenyl)-1,9-diazaspiro[5.5]undecan-2-one] was 620 nM; that for `O=C1CCCC2(CCN(c3cc(-n4cc(C(F)(F)F)cn4)n[nH]c3=O)CC2)N1c1ccc(F)c(F)c1` [Example 12, 1-(3,4-difluorophenyl)-9-(3-oxo-6-(4-(trifluoromethyl)-1H-pyrazol-1-yl)-2,3-dihydropyridazin-4-yl)-1,9-diazaspiro [5.5] undecane-2-one] was 2 nM.
The value for `O=C1CCCC2(CCN(c3cc(-c4ncco4)ncn3)CC2)N1c1ccc(F)c(F)c1` [Example 62, 1-(3,4-difluorophenyl)-9-(6-(oxazol-2-yl)pyrimidin-4-yl)-1,9-diazaspiro[5.5]undecan-2-one] was 410 nM; that for `O=C1CCCC2(CCN(c3nc(Cl)cc(O[C@@H]4CCOC4)n3)CC2)N1c1ccc(F)c(F)c1` [Example 72, (R)-9-(4-chloro-6-((tetrahydrofuran-3-yl)oxy)pyrimidin-2-yl)-1-(3,4-difluorophenyl)-1,9-diazaspiro[5.5]undecan-2-one] was 760 nM; that for `CC(C)(O)c1nc(N2CCC3(CCCC(=O)N3c3ccc(F)c(F)c3)CC2)cc(C(F)(F)F)n1` [Example 80, 1-(3,4-difluorophenyl)-9-(2-(2-hydroxypropan-2-yl)-6-(trifluoromethyl)pyrimidin-4-yl)-1,9-diazaspiro[5.5]undecan-2-one] was 24 nM.
In the case of `CC(Oc1cc(N2CCC3(CCCC(=O)N3c3ccc(F)c(F)c3)CC2)ncn1)C(F)(F)F` (racemic) [Example 86, rac-1-(3,4-dfluorophenyl)-9-(6-((1,1,1-trifluoropropan-2-yl)oxy)pyrimidin-4-yl)-1,9-diazaspiro[5.5]undecan-2-one] it was 2 nM.
Turning to `O=C1CCCC2(CCN(c3cc(OC4CCOCC4)ncn3)CC2)N1c1ccc(F)c(F)c1` [Example 87, 1-(3,4-difluorophenyl)-9-(6-((tetrahydro-2H-pyran-4-yl)oxy)pyrimidin-4-yl)-1,9-diazaspiro[5.5]undecan-2-one], the IC50 stood at 7 nM.
As to `O=C1CCCC2(CCN(c3cc(-n4cc(C(F)(F)F)cn4)nc(CO)n3)CC2)N1c1ccc(F)c(F)c1` (racemic) [Example 67, rac-1-(3,4-difluorophenyl)-9-(2-(1-hydroxymethyl)-6-(4-(trifluoromethyl)-1H-pyrazol-1-yl)pyrimidin-4-yl)1,9-diazaspiro[5.5]undecane-2-one], the IC50 came out at 2 nM.
In the case of “(S)-9-(2-amino-6-(2,2,2-trifluoro-1-(oxetan-3-yl)ethoxy)pyrimidin-4-yl)-1-(3,4-difluorophenyl)-1,9-diazaspiro[5.5]undecan-2-one or (R)-9-(2-amino-6-(2,2,2-trifluoro-1-(oxetan-3-yl)ethoxy)pyrimidin-4-yl)-1-(3,4-difluorophenyl)-1,9-diazaspiro[5.5]undecan-2-one [Example 89a]” it was 1 nM.
In the case of `O=C1CCCC2(CCN(c3cc(O[C@@H]4CCOC[C@@H]4F)nc(CO)n3)CC2)N1c1ccc(F)c(F)c1` (racemic) [Example 107, rac-1-(3,4-difluorophenyl)-9-(6-(((3S,4R)-3-fluorotetrahydro-2H-pyran-4-yl)oxy)-2-(hydroxymethyl)pyrimidin-4-yl)-1,9-diazaspiro[5.5]undecan-2-one] it was 6 nM; in that of `O=C1CCCC2(CCN(c3cc(O[C@H]4CCOC4)nc(Cl)n3)CC2)N1c1ccc(F)c(F)c1` [Example 71, (S)-9-(2-chloro-6-((tetrahydrofuran-3-yl)oxy)pyrimidin-4-yl)-1-(3,4-difluorophenyl)-1,9-diazaspiro[5.5]undecan-2-one], 580 nM; in that of `CC1(O)CN(c2nc(N)cc(N3CCC4(CCCC(=O)N4c4ccc(F)c(F)c4)CC3)n2)C1` [Example 43, 9-(6-amino-2-(3-hydroxy-3-methylazetidin-1-yl)pyrimidin-4-yl)-1-(3,4-difluorophenyl)-1,9-diazaspiro[5.5]undecan-2-one], 400 nM.
The value for `Nc1nc(OCCO)cc(N2CCC3(CCCC(=O)N3c3ccc(F)c(F)c3)CC2)n1` [Example 94, 9-(2-amino-6-(2-hydroxyethoxy)pyrimidin-4-yl)-1-(3,4-difluorophenyl)-1,9-diazaspiro[5.5]undecan-2-one] was 830 nM; that for `CN(C)c1nc(N2CCC3(CCCC(=O)N3c3ccc(F)c(F)c3)CC2)cc(-n2cccn2)n1` [Example 53, 1-(3,4-difluorophenyl)-9-(2-(dimethylamino)-6-(1H-pyrazol-1-yl)pyrimidin-4-yl)-1,9-diazaspiro[5.5]undecan-2-one] was 1140 nM; that for `Nc1nc(OC2COCC2(F)F)cc(N2CCC3(CCCC(=O)N3c3ccc(F)c(F)c3)CC2)n1` (racemic) [Example 98, rac-9-(2-amino-6-((4,4-difluorotetrahydrofuran-3-yl)oxy)pyrimidin-4-yl)-1-(3,4-difluorophenyl)-1,9-diazaspiro[5.5]undecan-2-one] was 3 nM.
On to “(S)-1-(3,4-difluorophenyl)-9-(2-(hydroxymethyl)-6-((1,1,1-trifluoropropan-2-yl)oxy)pyrimidin-4-yl)-1,9-diazaspiro[5.5]undecan-2-one or (R)-1-(3,4-difluorophenyl)-9-(2-(hydroxymethyl)-6-((1,1,1-trifluoropropan-2-yl)oxy)pyrimidin-4-yl)-1,9-diazaspiro[5.5]undecan-2-one [Example 110a]”, for which the IC50 was 3 nM.
In the case of `Nc1nc(N2CCC3(CCCC(=O)N3c3ccc(F)c(F)c3)CC2)cc(C(F)(F)C(F)F)n1` [Example 78, 9-(2-amino-6-(1,1,2,2-tetrafluoroethyl)pyrimidin-4-yl)-1-(3,4-difluorophenyl)-1,9-diazaspiro[5.5]undecan-2-one] it was 24 nM; in that of `Nc1nc(N2CCC3(CCCC(=O)N3c3ccc(F)c(F)c3)CC2)c(F)c(N2CCC(O)(C(F)(F)F)CC2)n1` [Example 41, 9-(2-amino-5-fluoro-6-(4-hydroxy-4-(trifluoromethyl)piperidin-1-yl)pyrimidin-4-yl)-1-(3,4-difluorophenyl)-1,9-diazaspiro[5.5]undecan-2-one], 5 nM.
In the case of `O=C1CCCC2(CCN(c3cc(-n4cc(C(F)(F)F)cn4)nc(Cl)n3)CC2)N1c1ccc(F)c(F)c1` [Example 69, 9-(2-chloro-6-(4-(trifluoromethyl)-1H-pyrazol-1-yl)pyrimidin-4-yl)-1-(3,4-difluorophenyl)-1,9-diazaspiro[5.5]undecan-2-one] it was 35 nM; in that of `Nc1nc(N2CCC3(CCCC(=O)N3c3ccc(F)c(F)c3)CC2)c(F)c(-n2cccn2)n1` [Example 59, 9-(2-amino-5-fluoro-6-(1H-pyrazol-1-yl)primidin-4-yl)-1-(3,4-difluorophenyl)-1,9-diazaspiro[5.5]undecan-2-one], 640 nM; in that of `Cn1cc(C2=CCC(F)(F)CC2)nc(N2CCC3(CCCC(=O)N3c3ccc(F)c(F)c3)CC2)c1=O` [Example 19, 9-(6-(4,4-difluorocyclohex-1-en-1-yl)-4-methyl-3-oxo-3,4-dihydropyrazin-2-yl)-1-(3,4-difluorophenyl)-1,9-diazaspiro[5.5]undecane-2-one], 3 nM.
In the case of `Nc1nc(OC2CC(F)(F)C2)cc(N2CCC3(CCCC(=O)N3c3ccc(F)c(F)c3)CC2)n1` [Example 90, 9-(2-amino-6-(3,3-difluorocyclobutoxy)pyrimidin-4-yl)-1-(3,4-difluorophenyl)-1,9-diazaspiro[5.5]undecan-2-one] it was 4 nM; in that of `O=C1CCCC2(CCN(c3cc(-n4cnc(C(F)(F)F)c4)ncn3)CC2)N1c1ccc(F)c(F)c1` [Example 58, 1-(3,4-difluorophenyl)-9-(6-(4-(trifluoromethyl)-1H-imidazol-1-yl)pyrimidin-4-yl)-1,9-diazaspiro[5.5]undecan-2-one], 560 nM.
